Source: a melting point compilation (Tetko et al.; mined from patent text by program, amines drawn as free bases though some values may be those of a salt)

Structure (SMILES)	melting point [°C]
CCOC(=O)C=Cc1cc(Br)cc(C(O)c2ccc(F)cc2)c1 (stereo not given)	82 to 84
COc1ccc(O)c(CNc2ccccc2)c1	82 to 84
CN(CCc1ccncc1)S(=O)(=O)C1CCCCC1	94 to 96
CC(=O)N[C@@H](C)COc1ccc(-c2nc3ccc(OCC4CC4)cc3o2)nc1	179 to 180
CCCC1(C)CC(C)c2ccc(O)c(C)c2O1 (stereo not given)	60
N#Cc1ccc(OCc2ccc(Cl)c(Cl)c2)cc1	222 to 223
Cc1ncsc1C(=O)CCCSc1nnnn1C	64 to 65
COc1ccc(N2N=C3c4cc(C)sc4S(=O)(=O)CCC3CC2=O)cc1 (stereo not given)	190 to 191
CCOC(=O)CCCCC(=O)Oc1cccc(-c2cn3c(n2)sc2ccccc23)c1	90 to 92
CS(=O)(=O)c1ccc(-c2cnn(CC(=O)c3ccc(OC(F)(F)F)cc3)c(=O)c2-c2ccc(F)cc2)cc1	160 to 161
Nc1nc2c(ncn2OCC(O)CO)c(=O)[nH]1 (stereo not given)	252 to 253
N#Cc1nn(-c2c(Cl)cc(C(F)(F)F)cc2Cl)c(N)c1-c1ccc(Br)s1	214
CCC(=CCn1oc(=O)[nH]c1=O)c1ccc2c(Cc3ccccc3)c(CC)oc2c1	118 to 120
COc1nc2cc(Cl)c(Cl)c([N+](=O)[O-])c2nc1OC	184 to 186
CCOC(=O)c1c(-c2ccc(F)cc2)c(-c2ccc(F)cc2)cn1C(C)C	49
COc1ccc2[nH]cc(C3CCN(C(=O)NCC4CCC(c5ccccc5)(N(C)C)CC4)CC3)c2c1 (stereo not given)	98 to 100
COC(=O)c1ccc2c(Cl)c(C(=O)Cl)sc2c1	259 to 260
COc1ccc(CN(CCN(C)CCCNC(=O)NCCSCc2csc(NC(=N)N)n2)c2ccccn2)cc1	106 to 109
N#Cc1ccc2[nH]cc(C3=CCN(CC4COc5cccnc5O4)CC3)c2c1 (stereo not given)	165
C=CCN1C(=O)CSC1=NOC(=O)NC	108 to 110
CCCCc1nc(S(C)(=O)=O)c(C(=O)O)n1Cc1ccc(-c2ccccc2C(=O)O)cc1	196
CCOc1cc2cc(CO)nc(-c3ccnc(-n4nc(-c5cc(OC)c(OC)c(OC)c5)c5sccc5c4=O)c3)c2cc1OCC	250 to 251
Nc1nccnc1C(=O)NCCCn1ccnc1	118 to 120
CN(CC(=O)OC(C)(C)C)S(=O)(=O)c1ccc2c(Cl)cnc(NC(=N)N)c2c1	84
O=c1ccc(S(=O)(=O)c2cc3cc(Cl)ccc3o2)n[nH]1	246 to 247

Structure (SMILES)	melting point [°C]
O=C(c1ccc2nonc2c1)N1CCOCC1	148 to 150
Oc1cc2c3ccc(O)c(O)c3n(Cc3c(Cl)cccc3Cl)c2cc1O	263 to 265
O=C(CN1CCCCC1)Nc1ccc2c(c1)C(=O)c1cc(NC(=O)CN3CCCCC3)ccc1C2=O	243
CCCOCCOC(=O)C1=C(C)NC(C)=C(/C=C/S(=O)(=O)NC(C)C)C1c1cccc([N+](=O)[O-])c1 (stereo not given)	152 to 154
CCOc1ccccc1OCC1(O)CCNC1 (stereo not given)	108 to 110
COC(=O)c1ccccc1-c1ccc(N(C)C)cn1	161 to 163
COc1ccc2c(N=O)c(O)ccc2c1	147 to 148
CC(C)Nc1cccnc1N1CCN(C(=O)c2ccc(C(=O)N[C@H](CO)C(C)C)cc2)CC1	82 to 83
Cc1nc2c3c(c(C(=O)NCCCO)cc2n1C)CCC1(Cc2ccccc2C1)N3	237 to 238
CCOC(=O)Cc1c(SC)c2cc(F)ccc2n1Cc1ccc(Cl)cc1	118 to 119
CON(c1ccc([N+](=O)[O-])cc1C#N)S(=O)(=O)c1ccc(C)cc1	148 to 150
COCCOc1ccc(/C=C/C(=O)NS(=O)(=O)c2cccc(C#N)c2)c(Oc2ncc(C(F)(F)F)cc2Cl)c1	195 to 197
CNC(=O)c1cc2cc(S(N)(=O)=O)sc2s1	272 to 273
CC(C)(C)NC(=O)N1CCn2c(Cl)c(-c3cccc(C#N)c3)c(C(N)=O)c2C1	192 to 195
CC(C)(C)OC(=O)NC1CN(c2c(F)cc3c(=O)c(C(=O)O)cn(C4CC4)c3c2Cl)CC12CC2 (stereo not given)	205 to 207
Cc1ccc(-c2ccc3c(c2)C=C(C(=O)Nc2ccc(C4=NCCN4)cc2)CCO3)cc1	282 to 283
COc1ccc(N2CCOCC2)c2sc(-c3nc4ccc(N5CCCC5)nc4[nH]3)nc12	264 to 268
CCCCN=C1SC(=CC(=O)O)C(=O)N1CCCC	99 to 101
CC(=O)N1CCN(c2c(Cl)cncc2Cl)CC1	144 to 146
NC(=O)c1ccc(-c2ccc(-c3ccc(C(F)(F)F)cc3)o2)cc1	263 to 264
Cn1ncnc1COc1nc2c(-c3ccccc3F)nncn2c1C1CCC1	120
Clc1ccc(Cn2ccc3cc(OCc4ccc5ccccc5n4)ccc32)cc1	102 to 104
CC(C)[C@H](NC(=O)c1ccc2ccccc2n1)C(=O)NC(Cc1ccccc1)C(O)CNCC(O)C(Cc1ccccc1)NC(=O)OC(C)(C)C (stereo not given in full)	192 to 194
CCC(Oc1ccc2c(-c3ccc(Cl)cc3)noc2c1)C(=O)O (stereo not given)	144
COc1ccc(C(=O)C[N+](=O)[O-])c(O)c1	138 to 140
